Literature values in patent publication US20220211620A1, “Pain Relieving Spray” (Animal Ethics Pty Ltd, priority 2019, published 2022).

Conditions: up to about; depending on the method of administration

SMILES: CCCCN1CCCCC1C(=O)Nc1c(C)cccc1C (stereo not shown) [bupivacaine]
- duration of anaesthesia typically provided: 6 to 12 h
